The values below come from ChEMBL document CHEMBL1157977, “Musidunin and musiduol, insect antifeedants from Croton jatrophoides” (2006).

What all share (type): functional
Test [1] concerns Pectinophora gossypiella. The test is described as follows: Antifeedant activity against Pectinophora gossypiella second-instar larvae assessed as drug level causing 50% protection of host plant by leaf disc assay relative to control.
The subject of test [2] is Pectinophora gossypiella. The test can be described thus: Antifeedant activity against Pectinophora gossypiella second-instar larvae assessed as drug level causing 95% protection of host plant by leaf disc assay relative to control.
Test [3] concerns Spodoptera frugiperda. The test is described as follows: Antifeedant activity against Spodoptera frugiperda second-instar larvae assessed as drug level causing 95% protection of host plant by leaf disc assay relative to control.
In test [4] the test system is Spodoptera frugiperda. The test is described as follows: Antifeedant activity against Spodoptera frugiperda second-instar larvae assessed as drug level causing 50% protection of host plant by leaf disc assay relative to control.

As to `COC(=O)C[C@H]1C(C)(C)O[C@@]23OCC4=C5[C@H](O)C[C@@H](c6ccoc6)[C@]5(C)[C@@H](OC(C)=O)[C@H](OC(C)=O)[C@@H]4[C@@]12CCC3=O`, the Activity in the test on Pectinophora gossypiella [1] was 3 µg/mL; with Pectinophora gossypiella [2] it was 10 µg/mL.

As to `CC(=O)O[C@H]1[C@H](OC(C)=O)[C@]2(C)[C@@H](C(=O)C[C@H]2c2ccoc2)[C@]2(C)[C@H](O)C[C@H]3C(C)(C)O[C@]4(O)C(=O)CC[C@]34[C@@H]12`, the Activity with Spodoptera frugiperda [3] was found to be 36 µg/mL; in the test with Pectinophora gossypiella [1] it was 4 µg/mL; in the test with Spodoptera frugiperda [4] it was 2 µg/mL; with Pectinophora gossypiella [2], 20 µg/mL.
